Source: US11180509B2, “Thiazolidone spiro pyrimidine trione compound, preparation method therefor and uses thereof” (SHANGHAI INSTITUTE OF MATERIA MEDICA, CHINESE ACADEMY OF …, priority 2017, dated 2021)
In brackets after ≈: the same amount, converted by molar mass. Where two headings read alike, the source gives them in different places.

Experiments:
[1] = test system: methicillin-resistant Staphylococcus epidermidis or MRSE; test: In vitro antibacterial activity, MIC by micro broth dilution; format: cell-based; conditions: read-out: MIC MRSE
Excerpt: (§1) The following strains isolated in clinic were used in antibacterial activity screening in vitro: five strains of methicillin-resistant Staphylococcus aureus or MRSA, five strains of methicillin-sensitive Staphylococcus aureus or MSSA, five strains of methicillin-resistant Staphylococcus epidermidis or MRSE, five strains of methicillin-sensitive Staphylococcus epidermidis or MSSE, three strains of penicillin-resistant Streptococcus pneumoniae or PRSP, and three strains of Streptococcus pyogenes.
(§2) The above strains were clinically isolated pathogenic bacteria collected in Sichuan and Beijing in December 2015. They were identified by the collection unit via a VITEK-60 automatic microbiological identification instrument, and then re-identified by conventional methods in the laboratory. Before the experiment, each strain was purified by a single colony on an agar plate, and the cells freshly cultured at 37° C. overnight were appropriately diluted for the experiment. Quality control strain was Staphylococcus aureus ATCC25923 purchased from the Clinical Testing Center of the Ministry of Health of the People's Republic of China.
(§3) Medium: MH (Mueller-Hinton, hydrolyzed casein) broth (OXOID);
(§4) Culture condition: Incubate at 35-37° C. for 16-18 h.
(§5) The MIC value of each test sample for the tested strain was determined by micro broth dilution method recommended by Performance Standards for Antimicrobial Susceptibility Testing (Twenty-Third Informational Supplement; M02-A11, M07-A9 and M11-A8, 2013) of American Clinical and Laboratory Standards Institute (CLSI).
(§6) After diluting each test sample to different concentrations in MH broth, 100 μl of each sample solution at different concentrations was pipetted into a sterilized 96-well polystyrene plate. In the first to twelfth wells, the drug solution was added, and the final drug concentrations in each well were 64, 32, 16, 8, 4, 2, 1, 0.5, 0.25, 0.125, 0.06, and 0.03 mg/L. The well without drug and without bacteria was set as blank control well. The well with bacteria and without drug was set as a bacterial growth control well.
(§7) The test bacterial solution was adjusted with physiological saline to a bacterial suspension equivalent to 0.5 Maisson turbidity standard, and diluted 1:100 with MH broth. The drug solution was added so that the final concentration of the bacterial solution was about 10^4 CFU/ml; then 100 μl of bacterial solution was pipetted into the above wells (the total volume in each well was 200 μl). The plate was sealed and placed in a 35-37° C. incubator for 18-20 h, and then the results were determined. […] When Streptococcus pneumoniae was tested, sterile defibrillated sheep blood was added into the Colombian broth culture medium at a final concentration of 5% and cultivation was conducted in a 5% CO2 and 35-37° C. incubator for 18-20 hours.

[2] = test system: methicillin-resistant Staphylococcus aureus or MRSA; test: as above; format: cell-based; conditions: read-out: MIC MRSA
Excerpt: as §1, §2, §3, §4, §5, §6, §7

[3] = test system: penicillin-resistant Streptococcus pneumoniae or PRSP; test: as above; format: cell-based; conditions: read-out: MIC PRSP
Excerpt: as §1, §2, §3, §4, §5, §6, §7

[4] = test system: methicillin-sensitive Staphylococcus epidermidis or MSSE; test: as above; format: cell-based; conditions: read-out: MIC MSSE
Excerpt: as §1, §2, §3, §4, §5, §6, §7

[5] = test system: methicillin-sensitive Staphylococcus aureus or MSSA; test: as above; format: cell-based; conditions: read-out: MIC MSSA
Excerpt: as §1, §2, §3, §4, §5, §6, §7

Streptococcus pyogenes = test: as above; format: cell-based; conditions: read-out: MIC Spy
Excerpt: as §1, §2, §3, §4, §5, §6, §7

[6] = In vivo pharmacokinetics test in mice (oral); set-up: species or system CD-1 mice; conditions: PO 10.0 mg/kg; for AUC0→t / Cmax / MRT / Tmax / t1/2: plasma
Protocol: Healthy female CD-1 mice were randomly divided into five groups and each group comprised three mice. The tested compound was administered orally.
0.030 mL of blood was taken from the orbit of each animal each time and anticoagulated with EDTAK2. The collection time was as follows. PO group: 15 m, 30 mi, 1 h, 2 h, 4 h, 6 h, 8 h, and 24 h after administration of the test compound. The collected blood samples were placed on ice and centrifuged within 30 minutes to separate the plasma (centrifugation conditions: 5000 rpm, 10 minutes, room temperature). The samples were stored at −80° C. before analysis.

[7] = test system: MRSA, MSSA, MRSE, MSSE, PRSP, and Spy; test: In vitro antibacterial activity over the whole strain panel, compared with AZD0914; format: cell-based; conditions: against MRSA
Excerpt: as §1, §2, §5, §6, §7

SMILES	MIC [1] [µg/mL]	MIC [2] [µg/mL]	MIC [3] [µg/mL]	MIC [4] [µg/mL]	MIC [5] [µg/mL]	MIC (Streptococcus pyogenes) [µg/mL]	AUC0→t relative to AZD0914 ([6]; multiple of the AZD0914 value) [times)]	Cmax relative to AZD0914 ([6]; multiple of the AZD0914 value) [times)]	AUC0→t [6] [ng·h/mL]	Cmax [6] [ng/mL]	MRT [6] [h]	Tmax [6] [h]	t1/2 [6] [h]	in vitro antibacterial activity relative to AZD0914 [7]	Tmax ([6]; female, CD-1, mouse, read-out: Tmax) [h]
CC[C@@H]1CN(c2noc3c(F)c4c(cc23)CC2(C(=O)NC(=O)NC2=O)[C@H]2[C@H](C)O[C@H](C)CN42)C(=O)S1 [Compound 16, (2R,4S,4aS)-8-((R)-5-ethyl-2-oxothiazol-3-yl)-11-fluoro-2,4-dimethyl-1,2,4,4a-tetrahydro-2′H,6H-spiro[isoxazole[4,5-g][1,4]oxazine[4,3-a]quinoline-5,5′-pyrimidine]-2′,4′,6′(1′H,3′H)-trione]	< 0.03	0.03 to 0.06 (≈ 0.058 to 0.116 µM)	0.03 to 0.06 (≈ 0.058 to 0.116 µM)	< 0.03	0.03 to 0.06 (≈ 0.058 to 0.116 µM)	< 0.03	~11	~13	8057 ± 1469	2376 ± 411	3.45 ± 0.788	1.17 ± 0.764	1.59 ± 0.495	about 8 times	
C[C@@H]1CN2c3c(cc4c(N5C[C@H](CF)SC5=O)noc4c3F)CC3(C(=O)NC(=O)NC3=O)[C@H]2[C@H](C)O1 [Compound 6]	0.03 to 0.06 (≈ 0.0575 to 0.115 µM)	0.03 to 1 (≈ 0.0575 to 1.92 µM)	0.06 to 0.25 (≈ 0.115 to 0.479 µM)	< 0.03	0.06 to 0.125 (≈ 0.115 to 0.24 µM)	0.03 to 0.06 (≈ 0.0575 to 0.115 µM)									
CC[C@H]1CN(c2noc3c(F)c4c(cc23)CC2(C(=O)NC(=O)NC2=O)[C@H]2[C@H](C)O[C@H](C)CN42)C(=O)S1 [Compound 19, (2R,4S,4aS)-8-((S)-5-ethyl-2-oxothiazol-3-yl)-11-fluoro-2,4-dimethyl-1,2,4,4a-tetrahydro-2′H,6H-spiro[isoxazole[4,5-g][1,4]oxazine[4,3-a]quinoline-5,5′-pyrimidine]-2′,4′,6′(1′H,3′H)-trione]	< 0.03	< 0.03	0.03 to 0.06 (≈ 0.058 to 0.116 µM)	0.03 to 0.06 (≈ 0.058 to 0.116 µM)	< 0.03	< 0.03								about 8 times	
C=C1CN(c2noc3c(F)c4c(cc23)CC2(C(=O)NC(=O)NC2=O)[C@H]2[C@H](C)O[C@H](C)CN42)C(=O)S1 [Compound 25, (2R,4S,4aS)-11-fluoro-2,4-dimethyl-8-(5-methylene-2-oxothiazol-3-yl)-1,2,4,4a-tetrahydro-2′H,6H-spiro[isoxazole[4,5-g][1,4]oxazine[4,3-a]quinoline-5,5′-pyrimidine]-2′,4′,6′(1′H, 3′H)-trione]	< 0.03	< 0.03	< 0.03	< 0.03	< 0.03	< 0.03								about 8 times	
C[C@@H]1CN2c3c(cc4c(N5C[C@@H](C)SC5=O)noc4c3F)CC3(C(=O)NC(=O)NC3=O)[C@H]2[C@H](C)O1 [Compound 3, (2R,4S,4aS)-11-fluoro-2,4-dimethyl-8-((R)-5-methyl-2-oxothiazolin-3-yl)-1,2,4,4a-tetrahydro-2′H,6H-spiro[isoxazole[4,5-g][1,4]oxazine[4,3-a]quinoline-5,5′-pyrimidine]-2′,4′,6′(1′H,3′H)-trione]	0.03 to 0.06 (≈ 0.0596 to 0.119 µM)	0.03 to 0.25 (≈ 0.0596 to 0.497 µM)	0.03 (≈ 0.0596 µM)	0.03 to 0.06 (≈ 0.0596 to 0.119 µM)	0.03 to 0.125 (≈ 0.0596 to 0.248 µM)	< 0.03			12034 ± 2835	2188 ± 223	4.85 ± 0.99		2.70 ± 0.143		0.583 ± 0.382
